The source of these data is US10376499B2, “Combination therapy for treatment of resistant bacterial infections” (priority 2014, dated 2019).

Values after ≈ are worked out from the molar mass of the structure shown.

One experiment has as its system Pseudomonas aeruginosa. The experiment in a line: MIC summary, 600 strains of Pseudomonas aeruginosa (Example 8). The settings on record: n = 600 strains; cmpd 1 and SUL each at 4 μg/mL where present.
Another experiment concerns Acinetobacter baumannii. The experiment in a line: MIC summary, 600 strains of Acinetobacter baumannii (Example 8). The settings on record: n = 600 strains; cmpd 1 and SUL each at 4 μg/mL where present.
The subject of experiment [1] is A. baumannii. The experiment in a line: MIC by broth microdilution (CLSI), panel of 60 A. baumannii clinical isolates (Example 1). The settings on record: Acinetobacter baumannii. A general note: Broth dilution looks for growth in wells or tubes with falling amounts of substance.
For experiment [2], the system named is A. baumannii. Kind of experiment: MIC90 of common antibiotics+compound 1, 196 contemporary clinical isolates of A. baumannii (Example 4). The settings on record: B-lactam + Cmpd 1 (4 μg/mL).
Experiment [3] has as its system A. baumannii. The experiment in a line: MIC of sulbactam+compound 1 versus Unasyn®+compound 1 (Example 2). The settings on record: equivalent total amount of sulbactam in both combinations; FIG. 2.
The subject of a further experiment is B. pseudomallei K96243. It is filed as in vivo, Burkholderia pseudomallei. The settings on record: Balb/c mice, lethal intranasal challenge; therapy from 4 hours post challenge for six consecutive days; FIG. 5.

In the case of `C[C@@H](O)[C@H]1C(=O)N2C(C(=O)O)=C(S[C@@H]3CN[C@H](C(=O)N(C)C)C3)[C@H](C)[C@H]12` [Meropenem, meropenem], the MIC50 is 0.5 in the experiment on Pseudomonas aeruginosa, >8 with Acinetobacter baumannii and 16 µg/mL (≈ 41.7 µM) against A. baumannii [1]. In addition, the MIC90 against Pseudomonas aeruginosa was >8; in the experiment with Acinetobacter baumannii, >8; with A. baumannii [1] it was 32 µg/mL (≈ 83.4 µM); in the experiment with A. baumannii [2] it was 16 µg/mL. Further, the “MIC Max” value against Acinetobacter baumannii is on record as >8. For the same compound, the “MIC Min” value against Acinetobacter baumannii is 0.0599. Also, the MIC (usually the least concentration at which growth counts as inhibited) against A. baumannii [1] (strain ARC593, OXA-98) was 1 µg/mL (≈ 2.61 µM); in the experiment on A. baumannii [1] (strain ARC2058, OXA-95), 0.25 µg/mL (≈ 0.652 µM); against A. baumannii [1] (strain ARC2461, OXA-66, TEM-1), 2 µg/mL (≈ 5.22 µM); with A. baumannii [1] (strain ARC2462, TEM-1, OXA-66), 4 µg/mL (≈ 10.4 µM); in the experiment on A. baumannii [1] (strain ARC2598, OXA*, TEM-1, OXA-113) it was 8 µg/mL (≈ 20.9 µM); against A. baumannii [1] (strain ARC2635, OXA-65, OXA-40, TEM-1), > 32 µg/mL. For the same compound, the MIC in the experiment with A. baumannii [1] (strain ARC2636, OXA-65, OXA-40, TEM-1) is > 32 µg/mL; with A. baumannii [1] (strain ARC2674, SHV-5, OXA-113), 8 µg/mL (≈ 20.9 µM); against A. baumannii [1] (strain ARC2675, SHV-5, OXA-113) it was > 32 µg/mL; against A. baumannii [1] (strain ARC2681, OXA-40, TEM-1, OXA-132) it was 32 µg/mL (≈ 83.4 µM); in the experiment on A. baumannii [1] (strain ARC2682, SHV-5, OXA-113), 32 µg/mL (≈ 83.4 µM); in the experiment on A. baumannii [1] (strain ARC2777, OXA-172, TEM-1), 32 µg/mL (≈ 83.4 µM). For the same compound, the MIC in the experiment on A. baumannii [1] (strain ARC2778, OXA-40, TEM-1, OXA-65) was > 32 µg/mL; with A. baumannii [1] (strain ARC2779 (A. baumannii/calcoaceticus complex), OXA-2, VIM-2), 16 µg/mL (≈ 41.7 µM); in the experiment with A. baumannii [1] (strain ARC2780 (A. baumannii/calcoaceticus complex), OXA*, OXA-2, IMP-1), 32 µg/mL (≈ 83.4 µM); in the experiment on A. baumannii [1] (strain ARC2782, OXA-66, OXA-23, TEM-1, PER-1), 16 µg/mL (≈ 41.7 µM); in the experiment with A. baumannii [1] (strain ARC2788, OXA-65, TEM-1), 1 µg/mL (≈ 2.61 µM); with A. baumannii [1] (strain ARC3484, TEM-1, OXA-23, OXA-64) it was 32 µg/mL (≈ 83.4 µM). In addition, the minimal inhibitory concentration (MIC) in the experiment with A. baumannii [1] (strain ARC3485, OXA-82) was 16 µg/mL (≈ 41.7 µM); against A. baumannii [1] (strain ARC3486, OXA-72, OXA-66, TEM-1) it was > 32 µg/mL; against A. baumannii [1] (strain ARC3487, OXA-20, OXA-58, OXA-66), 8 µg/mL (≈ 20.9 µM); in the experiment with A. baumannii [1] (strain ARC3488, OXA*, OXA-68), 4 µg/mL (≈ 10.4 µM); against A. baumannii [1] (strain ARC3489, OXA*, OXA-68) it was 4 µg/mL (≈ 10.4 µM); in the experiment with A. baumannii [1] (strain ARC3490, TEM-1+, PSE-2, OXA-69), 0.5 µg/mL (≈ 1.3 µM). Further, the minimum inhibitory concentration (MIC) was 2 µg/mL (≈ 5.22 µM) with A. baumannii [1] (strain ARC3491 (A. baumannii/calcoaceticus complex), OXA-215); > 32 µg/mL against A. baumannii [1] (strain ARC3492, OXA-40, OXA-132, TEM-1); > 32 µg/mL in the experiment on A. baumannii [1] (strain ARC3493, OXA-40, OXA-66); 0.25 µg/mL (≈ 0.652 µM) against A. baumannii [1] (strain ARC3494, OXA-65); > 32 µg/mL against A. baumannii [1] (strain ARC3495, OXA-40, OXA-109); 32 µg/mL (≈ 83.4 µM) in the experiment on A. baumannii [1] (strain ARC3513, TEM-1, OXA-23, OXA-65). Further, the MIC was 4 µg/mL (≈ 10.4 µM) with A. baumannii [1] (strain ARC3515, OXA-64, OXA-58); 2 µg/mL (≈ 5.22 µM) against A. baumannii [1] (strain ARC3657, OXA-130); 32 µg/mL (≈ 83.4 µM) in the experiment on A. baumannii [1] (strain ARC3658, OXA-66, PER-1, TEM-1, OXA-23); 8 µg/mL (≈ 20.9 µM) with A. baumannii [1] (strain ARC3659, OXA-23, OXA*); > 32 µg/mL in the experiment on A. baumannii [1] (strain ARC3882, OXA-23, NDM-1, OXA-10*); > 32 µg/mL against A. baumannii [1] (strain ARC5073, OXA-23, TEM-1, OXA-64, PER-1). Further, the MIC with A. baumannii [1] (strain ARC5074, GES*, TEM-1, OXA-51) was 8 µg/mL (≈ 20.9 µM); with A. baumannii [1] (strain ARC5075, SHV-5, OXA-113), 32 µg/mL (≈ 83.4 µM); in the experiment with A. baumannii [1] (strain ARC5076, TEM-1, OXA-23, OXA-66) it was 32 µg/mL (≈ 83.4 µM); in the experiment on A. baumannii [1] (strain ARC5077, OXA*, OXA-72) it was > 32 µg/mL; in the experiment on A. baumannii [1] (strain ARC5079, OXA-72, OXA-65), > 32 µg/mL; against A. baumannii [1] (strain ARC5080, OXA-71, OXA-40), > 32 µg/mL. Besides, the MIC is 16 µg/mL (≈ 41.7 µM) against A. baumannii [1] (strain ARC5081, OXA-94, OXA-23); > 32 µg/mL against A. baumannii [1] (strain ARC5082, OXA-66, OXA-23); 16 µg/mL (≈ 41.7 µM) against A. baumannii [1] (strain ARC5083, OXA-66, OXA-23); > 32 µg/mL in the experiment with A. baumannii [1] (strain ARC5084, IMP-4(B), OXA-58, OXA-65); 8 µg/mL (≈ 20.9 µM) with A. baumannii [1] (strain ARC5085, OXA*, TEM-1); > 32 µg/mL against A. baumannii [1] (strain ARC5086, OXA*, TEM-1, OXA-72, OXA-66). The MIC with A. baumannii [1] (strain ARC5087, OXA-66, OXA-23) stood at 16 µg/mL (≈ 41.7 µM); with A. baumannii [1] (strain ARC5088, OXA-20, OXA-58, OXA-66), 8 µg/mL (≈ 20.9 µM); in the experiment with A. baumannii [1] (strain ARC5089, PER*, TEM-1, OXA-23, OXA-66), 32 µg/mL (≈ 83.4 µM); against A. baumannii [1] (strain ARC5091, OXA-82, OXA-23), 32 µg/mL (≈ 83.4 µM); with A. baumannii [1] (strain ARC5092, OXA-23, OXA-64), 16 µg/mL (≈ 41.7 µM).

`CC1(C)S[C@@H]2[C@H](NC(=O)[C@H](N)c3ccccc3)C(=O)N2[C@H]1C(=O)O` [ampicillin]: the “effect of ampicillin on efficacy (MIC of Unasyn®+compound 1 versus sulbactam+compound 1)” value with A. baumannii [3] is recorded as “no effect on the efficacy”.

With `C[C@H]1c2cccc(O)c2C(=O)C2=C(O)[C@]3(O)C(=O)C(C(N)=O)=C(O)[C@@H](N(C)C)[C@@H]3[C@@H](O)[C@@H]21` [doxycycline], in the experiment on B. pseudomallei K96243, the survivorship amounted to 40%.
